Experimental data from PMC3731299, “Isoniazid Inhibits the Heme-Based Reactivity of Mycobacterium tuberculosis Truncated Hemoglobin N” (PLoS ONE, 2013).
Where two headings read alike, the source gives them in different places. Marks after values point to notes of the source that are not given here.

How the values were obtained:
Mt-trHbN(II) [1] = molecular target: T1, Mt-trHbN(II) (Mycobacterium tuberculosis, UniProt P9WN25); type: binding
T1 construct: made in house

Sperm whale Mb(II) [2] = tested on: Sperm whale Mb(II); design: method as in PMID 3733708; settings: pH 7.0, 20.0°C; cited from earlier work
Sperm whale Mb(III) = settings: pH 7.5, 20.0°C; cited from earlier work
Sperm whale Mb(II) [3] = molecular target: Sperm whale Mb(II); design: method as in ref 58 = [58]; 58 Antonini E, Brunori M (1971) Hemoglobin and myoglobin in their reactions with ligands. Amsterdam, London: North Holland Publishing Co.; settings: read-out: B for O2 binding to sperm whale Mb(II); pH 7.0, 20.0°C; cited from earlier work
Mt-trHbN(II) [4] = molecular target: T1, Mt-trHbN(II); assay: O2 binding to Mt-trHbN(II) in the absence and presence of isoniazid (tonometer method)
Protocol: The value of B was determined by the tonometer method adding small volumes of air to the Mt-trHbN(II) solution (1.3×10^−6 M), in the absence and presence of isoniazid ( = 1.0×10^−2 M; B ^obs).

[C-]#[O+] [CO]
amplitude (1 – a) of the CO binding process (slow phase) (Mt-trHbN(II) [1]): 0.62 | amplitude a of the CO binding process (Mt-trHbN(II) [1]): 1 | amplitude a of the CO binding process (isoniazid-free fraction, fast phase) (Mt-trHbN(II) [1]): 0.38 | f obs, pseudo-first order rate constant for CO binding (Mt-trHbN(II) [1]): 170 s⁻¹ | f obs, pseudo-first order rate constant for CO binding (fast phase) (Mt-trHbN(II) [1]): 170 s⁻¹ | f obsi, pseudo-first order rate constant for CO binding in the presence of isoniazid (slow phase) (Mt-trHbN(II) [1]): 1.5 s⁻¹ | second-order association rate constant f on for CO binding to Mt-trHbN(II) (Mt-trHbN(II) [1]; pH 7): f on = (3.8±0.5)×10^6 M^−1 s^−1 | f off for CO binding to sperm whale Mb(II) (Sperm whale Mb(II) [2]): f off = 1.9×10^−2 s^−1h | f on for CO binding to sperm whale Mb(II) (Sperm whale Mb(II) [2]): f on = 5.1×10^5 M^−1 s^−1 ^h

O=NOO [peroxynitrite]
l on for peroxynitrite detoxification by sperm whale Mb(III) (Sperm whale Mb(III)): l on = 1.6×10^4 M^−1 s^−1 ^e

O=O [O2]
Kd (Sperm whale Mb(II) [3]): 520 nM | Kd (Mt-trHbN(II) [4]; [isoniazid] = 1.0×10^−2 M, from B and D, read-out: B obs calculated according to Equation 16): 410 nM | P 50 for O2 binding to Mt-trHbN(II) in the presence of isoniazid (Mt-trHbN(II) [4]; [isoniazid] = 1.0×10^−2 M, corresponds to B obs): (2.3±0.3)×10^−1 mm Hg | P 50 for O2 binding to Mt-trHbN(II) (Mt-trHbN(II) [4]; absence of isoniazid, corresponds to B): (2.4±0.4)×10^−2 mm Hg | Kd (Mt-trHbN(II) [4]; read-out: dissociation equilibrium constant B for O2 binding to Mt-trHbN(II), absence of isoniazid, pH 7.0, 20.0°C, Equation 15): 44 nM
